Test results: PubChem BioAssay (NCI)
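96-well plates; 48 h exposure; 5 concentrations. Endpoints by linear interpolation between flanking doses. Not reached: highest tested concentration assigned. Abbreviation: GI50, concentration required for 50% inhibition of growth. TGI marks complete inhibition of growth.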

Legend:
Assay in all cases: growth of human tumour cells (NCI), 48 h
A549 NSCLC = test system: A549 NSCLC
UO-31 renal = test system: UO-31 renal
COLO 205 colon = test system: COLO 205 colon
RXF 393 renal = test system: RXF 393 renal
U251 CNS = test system: U251 CNS
HL-60(TB) leukemia = test system: HL-60(TB) leukemia
EKVX NSCLC = test system: EKVX NSCLC
SW-620 colon = test system: SW-620 colon
SF-268 CNS = test system: SF-268 CNS
M14 melanoma = test system: M14 melanoma

## Cc1cccc2c1NC(=O)[C@@]21[C@H](C(=O)c2ccccc2)[C@]2(C(=O)Nc3ccccc32)[C@H]2CCCN21
A549 NSCLC
  GI50: 58.9 µM
  TGI: > 100 µM
UO-31 renal
  GI50: 17.6 µM
  TGI: > 100 µM
COLO 205 colon
  GI50: 46.2 µM
  TGI: > 100 µM
RXF 393 renal
  GI50: 13.5 µM
  TGI: 47.5 µM
U251 CNS
  GI50: 28 µM
  TGI: 92 µM
HL-60(TB) leukemia
  GI50: 56.8 µM
  TGI: > 100 µM
EKVX NSCLC
  GI50: 40.6 µM
  TGI: > 100 µM
SW-620 colon
  GI50: 21.6 µM
  TGI: > 100 µM
SF-268 CNS
  GI50: 30.8 µM
  TGI: > 100 µM
M14 melanoma
  GI50: 43.3 µM
  TGI: > 100 µM

## CCCCNC(=O)Oc1ccc2c(=O)c3sc4c(=O)c5ccccc5c(=O)c4c3c(=O)c2c1
A549 NSCLC
  GI50: 0.209 µM
  TGI: 0.481 µM
UO-31 renal
  GI50: 0.699 µM
  TGI: 2.66 µM
COLO 205 colon
  GI50: 1.81 µM
  TGI: 3.5 µM
RXF 393 renal
  GI50: 1.2 µM
  TGI: 2.54 µM
U251 CNS
  GI50: 1.02 µM
  TGI: 2.26 µM
HL-60(TB) leukemia
  GI50: 3.11 µM
  TGI: > 100 µM
EKVX NSCLC
  GI50: 1.38 µM
  TGI: 3.57 µM
SW-620 colon
  GI50: 0.409 µM
  TGI: 1.58 µM
SF-268 CNS
  GI50: 1.1 µM
  TGI: 3.56 µM
M14 melanoma
  GI50: 0.0976 µM
  TGI: 0.225 µM

## COc1ccccc1N1CCN(C(=O)c2ccc(NS(=O)(=O)c3cccc4cccnc34)cc2)CC1
A549 NSCLC
  GI50: > 100 µM
  TGI: > 100 µM
UO-31 renal
  GI50: > 100 µM
  TGI: > 100 µM
COLO 205 colon
  GI50: > 100 µM
  TGI: > 100 µM
RXF 393 renal
  GI50: 5.02 µM
  TGI: 59.4 µM
U251 CNS
  GI50: 78.2 µM
  TGI: > 100 µM
HL-60(TB) leukemia
  GI50: > 100 µM
  TGI: > 100 µM
EKVX NSCLC
  GI50: > 100 µM
  TGI: > 100 µM
SW-620 colon
  GI50: > 100 µM
  TGI: > 100 µM
SF-268 CNS
  GI50: > 48.3 µM
  TGI: > 100 µM
M14 melanoma
  GI50: > 100 µM
  TGI: > 100 µM

## O=c1ccccc(-c2ccc(-c3ccco3)cc2)c1O
A549 NSCLC
  GI50: 1.39 µM
  TGI: 47.5 µM
UO-31 renal
  GI50: 0.598 µM
  TGI: 8.42 µM
COLO 205 colon
  GI50: 3.1 µM
  TGI: 49.8 µM
RXF 393 renal
  GI50: 0.951 µM
  TGI: 17.2 µM
U251 CNS
  GI50: 0.87 µM
  TGI: 12.7 µM
HL-60(TB) leukemia
  GI50: 0.441 µM
  TGI: 2.69 µM
EKVX NSCLC
  GI50: 0.406 µM
  TGI: 7.9 µM
SW-620 colon
  GI50: 0.438 µM
  TGI: 29.1 µM
SF-268 CNS
  GI50: 0.761 µM
  TGI: > 100 µM
M14 melanoma
  GI50: 0.665 µM
  TGI: 6.11 µM

## O=C1/C=C/[C@@H](O)[C@@H]2C[C@@H](O)C[C@H]2/C=C/CCC[C@H](CO)O1
A549 NSCLC
  GI50: 3.65 µM
  TGI: > 100 µM
UO-31 renal
  GI50: 2.98 µM
  TGI: > 100 µM
COLO 205 colon
  GI50: 1.7 µM
  TGI: 3.32 µM
RXF 393 renal
  GI50: 1.61 µM
  TGI: 5.04 µM
U251 CNS
  GI50: 3.3 µM
  TGI: > 100 µM
HL-60(TB) leukemia
  GI50: 2.24 µM
  TGI: 8.29 µM
EKVX NSCLC
  GI50: 3.11 µM
  TGI: > 100 µM
SW-620 colon
  GI50: 2.32 µM
  TGI: 6.81 µM
SF-268 CNS
  GI50: 1.33 µM
  TGI: > 100 µM
M14 melanoma
  GI50: 2.42 µM
  TGI: > 100 µM

## C=C1SC(=Nc2ccccc2Cl)N(C(=O)c2sc3ccccc3c2Cl)C1(C)C
A549 NSCLC
  GI50: 4.5 µM
  TGI: > 100 µM
UO-31 renal
  GI50: 3.64 µM
  TGI: > 100 µM
COLO 205 colon
  GI50: 3.49 µM
  TGI: 11 µM
RXF 393 renal
  GI50: 16.6 µM
  TGI: > 86.5 µM
U251 CNS
  GI50: 4.12 µM
  TGI: > 100 µM
HL-60(TB) leukemia
  GI50: 9.3 µM
  TGI: > 100 µM
EKVX NSCLC
  GI50: 2.38 µM
  TGI: 18.2 µM
SW-620 colon
  GI50: 4.68 µM
  TGI: > 100 µM
SF-268 CNS
  GI50: 12.9 µM
  TGI: > 100 µM
M14 melanoma
  GI50: 21 µM
  TGI: > 69.9 µM

## CCCC1C(=O)C(CC)Cc2c(OC)ccc(OC)c21 (stereo not given)
A549 NSCLC
  TGI: > 100 µM
UO-31 renal
  TGI: > 100 µM
COLO 205 colon
  TGI: > 100 µM
RXF 393 renal
  TGI: > 100 µM
U251 CNS
  TGI: > 100 µM
HL-60(TB) leukemia
  TGI: > 100 µM
EKVX NSCLC
  TGI: > 100 µM
SW-620 colon
  TGI: > 100 µM
SF-268 CNS
  TGI: > 100 µM
M14 melanoma
  TGI: > 100 µM

## N=C1C(c2nc3ccccc3s2)=C(O)CN1c1ccc(Cl)cc1Cl
A549 NSCLC
  GI50: 11.6 µM
  TGI: 35.6 µM
UO-31 renal
  GI50: 1.63 µM
  TGI: 3.62 µM
COLO 205 colon
  GI50: 36.6 µM
  TGI: > 100 µM
RXF 393 renal
  GI50: 10.8 µM
  TGI: 36.1 µM
U251 CNS
  GI50: 10.1 µM
  TGI: 29.9 µM
HL-60(TB) leukemia
  GI50: 41.9 µM
  TGI: > 100 µM
EKVX NSCLC
  GI50: 29.9 µM
  TGI: 85.5 µM
SW-620 colon
  GI50: 36.7 µM
  TGI: > 100 µM
SF-268 CNS
  GI50: 89 µM
  TGI: > 100 µM
M14 melanoma
  GI50: 23.7 µM
  TGI: > 100 µM

## O=S(=O)(NCCCNc1cc(-c2cn(-c3ccccc3)nc2-c2cccc(O)c2)ccn1)c1cccc2ccccc12
A549 NSCLC
  GI50: 3.5 µM
  TGI: > 100 µM
UO-31 renal
  GI50: 2.1 µM
  TGI: 9.32 µM
COLO 205 colon
  GI50: 1.69 µM
  TGI: 3.29 µM
RXF 393 renal
  GI50: 1.18 µM
  TGI: 5.04 µM
U251 CNS
  GI50: 1.78 µM
  TGI: 13.1 µM
HL-60(TB) leukemia
  GI50: 2.7 µM
  TGI: 7.2 µM
EKVX NSCLC
  GI50: 3.99 µM
  TGI: > 100 µM
SW-620 colon
  GI50: 2.75 µM
  TGI: 10 µM
SF-268 CNS
  GI50: 3.02 µM
  TGI: 40.8 µM
M14 melanoma
  GI50: 2.14 µM
  TGI: 5.3 µM

## CC1OC(O[C@H]2/C=C/C=C/C=C/C=C/C=C/C=C/C=C/[C@H](C)[C@@H](O)[C@@H](C)[C@H](C)OC(=O)C[C@H](O)C[C@H](O)CC[C@@H](O)[C@H](O)C[C@H](O)C[C@]3(O)C[C@H](O)[C@@H](C(=O)O)[C@H](C2)O3)C(O)C(N)C1O (stereo not given in full)
A549 NSCLC
  GI50: 9.72 µM
  TGI: 34.9 µM
UO-31 renal
  TGI: 4.27 µM
COLO 205 colon
  TGI: 45.2 µM
RXF 393 renal
  TGI: 18.2 µM
U251 CNS
  GI50: 14.3 µM
  TGI: 40.6 µM
HL-60(TB) leukemia
  GI50: 3.29 µM
  TGI: 30.6 µM
EKVX NSCLC
  GI50: 11.1 µM
  TGI: 27.8 µM
SW-620 colon
  TGI: 32.8 µM
SF-268 CNS
  GI50: 25.6 µM
  TGI: 60.7 µM
M14 melanoma
  GI50: 11 µM
  TGI: 29.2 µM

## O=C1c2cccc3cc([N+](=O)[O-])cc(c23)C(=O)N1CCN1CCCC1
A549 NSCLC
  GI50: 0.242 µM
  TGI: 1.69 µM
UO-31 renal
  GI50: 0.281 µM
  TGI: 3.17 µM
COLO 205 colon
  GI50: 0.648 µM
  TGI: 2.92 µM
RXF 393 renal
  GI50: 0.839 µM
  TGI: 3.01 µM
U251 CNS
  GI50: 0.315 µM
HL-60(TB) leukemia
  GI50: 0.404 µM
  TGI: > 100 µM
EKVX NSCLC
  GI50: 1.47 µM
  TGI: 5.7 µM
SW-620 colon
  GI50: 0.389 µM
  TGI: 5.19 µM
SF-268 CNS
  GI50: 0.601 µM
  TGI: 4.27 µM
M14 melanoma
  GI50: 0.451 µM
  TGI: 2.08 µM
